Assay results taken from PubChem BioAssay AID2060338 (Molecular Pharmacology Branch, DTP, NCI, 2025).
pIC50: −log10 of the molar value. “And” between values parts separate entries of the source, which are not always exact repeats. Equal values may be shown once.

Test system: 556581-035-R-J1-PDC spheroids with HUVEC/MSC, viability
Assay: Anticancer human tumor 556581-035-R-J1-PDC patient-derived ovarian carcinoma cell line growth inhibition [IpAb]
Conditions: for viability, T/C: stronger effect = lower value
Outline: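 Spheroids of 60% malignant cells, 25% HUVEC and 15% MSC were exposed to targeted agents combined with ipatasertib or abemaciclib. Doses started at or near clinical Cmax (10 microM when unknown) and fell in half-log steps.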

[1] = curve of first compound, second compound 0.1 µM
[2] = curve of first compound, second compound 0.316 µM
[3] = curve of first compound, second compound 1 µM
[4] = second compound 0.1 µM, first compound 0.0316 µM
[5] = second compound 0.1 µM, first compound 0.1 µM
[6] = second compound 0.1 µM, first compound 0.316 µM
[7] = second compound 0.1 µM, first compound 1 µM
[8] = second compound 0.1 µM, first compound 3.16 µM
[9] = second compound 0.1 µM, first compound 10 µM
[10] = second compound 0.316 µM, first compound 0.0316 µM
[11] = second compound 0.316 µM, first compound 0.1 µM
[12] = second compound 0.316 µM, first compound 0.316 µM
[13] = second compound 0.316 µM, first compound 1 µM
[14] = second compound 0.316 µM, first compound 3.16 µM
[15] = second compound 0.316 µM, first compound 10 µM
[16] = second compound 1 µM, first compound 0.0316 µM
[17] = second compound 1 µM, first compound 0.1 µM
[18] = second compound 1 µM, first compound 0.316 µM
[19] = second compound 1 µM, first compound 1 µM
[20] = second compound 1 µM, first compound 3.16 µM
[21] = second compound 1 µM, first compound 10 µM
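Further: spheroids exposed to compounds for 7 days before readout.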

For `Cc1nc(NC(=O)N2CCCC2C(N)=O)sc1-c1ccnc(C(C)(C)C(F)(F)F)c1` (configuration not stated) + CCN1CCN(Cc2ccc(Nc3ncc(F)c(-c4cc(F)c5nc(C)n(C(C)C)c5c4)n3)nc2)CC1, the pIC50 (curve of first compound, second compound 0.01 µM) was 6.41, the pIC50 (curve of first compound, second compound 0.0316 µM) was 6.56 and the pIC50 [1] was 6.40. The pIC50 [2] was greater than 7.50, the pIC50 [3] was greater than 7.50 and the viability, T/C (second compound 0.01 µM, first compound 0.0316 µM) was 87.3%. The viability, T/C (second compound 0.01 µM, first compound 0.1 µM) was 65.6%, the viability, T/C (second compound 0.01 µM, first compound 0.316 µM) was 47.3% and the viability, T/C (second compound 0.01 µM, first compound 1 µM) was 39.6%. It also gave a viability, T/C (second compound 0.01 µM, first compound 3.16 µM) of 33.2%, a viability, T/C (second compound 0.01 µM, first compound 10 µM) of 10.3% and a viability, T/C (second compound 0.0316 µM, first compound 0.0316 µM) of 70.4%. It also gave a viability, T/C (second compound 0.0316 µM, first compound 0.1 µM) of 58.8%, a viability, T/C (second compound 0.0316 µM, first compound 0.316 µM) of 42.9% and a viability, T/C (second compound 0.0316 µM, first compound 1 µM) of 42%. For the same molecule, the viability, T/C (second compound 0.0316 µM, first compound 3.16 µM) was 27.5%, the viability, T/C (second compound 0.0316 µM, first compound 10 µM) was 9.58% and the viability, T/C [4] was 67.8%. The viability, T/C [5] was 62%, the viability, T/C [6] was 52.7% and the viability, T/C [7] was 39.5%. The viability, T/C [8] was 25.2%, the viability, T/C [9] was 7.2% and the viability, T/C [10] was 46.7%. It also gave a viability, T/C [11] of 47.9%, a viability, T/C [12] of 40.8% and a viability, T/C [13] of 36.7%. The viability, T/C [14] was 31.2%, the viability, T/C [15] was 11.3% and the viability, T/C [16] was 48.9%. For the same molecule, the viability, T/C [17] was 37.9%, the viability, T/C [18] was 39% and the viability, T/C [19] was 30.2%. For the same molecule, the viability, T/C [20] was 20.2% and the viability, T/C [21] was 9%.

With `CC(C)n1nc(-c2ccc3oc(N)nc3c2)c2c(N)ncnc21` the viability, T/C (compound 0.000316 µM) was 99.2% and 88.1%, the viability, T/C (compound 0.001 µM) was 62.2% and 89.2% and the viability, T/C (compound 0.00316 µM) was 70.7% and 66.5%. The viability, T/C (compound 0.01 µM) was 45.7% and 44.2%, the viability, T/C (compound 0.0316 µM) was 34.7% and 34% and the viability, T/C (compound 0.1 µM) was 25.1% and 23.4%. For the same molecule, the pIC50 (curve of compound) was 8.11.

In the case of `CCN1CCN(Cc2ccc(Nc3ncc(F)c(-c4cc(F)c5nc(C)n(C(C)C)c5c4)n3)nc2)CC1`, the viability, T/C (compound 1 µM) was 52.7% [middle of 13 runs].

Molecule `CC1(C)CCC(CN2CCN(c3ccc(C(=O)NS(=O)(=O)c4ccc(NCC5CCOCC5)c([N+](=O)[O-])c4)c(Oc4cnc5[nH]ccc5c4)c3)CC2)=C(c2ccc(Cl)cc2)C1` + CC(C)NCC(C(=O)N1CCN(c2ncnc3c2C(C)CC3O)CC1)c1ccc(Cl)cc1 has a pIC50 [1] of 5.17, a pIC50 [2] of 5.26 and a pIC50 [3] of 5.42. The pIC50 (curve of first compound, second compound 3.16 µM) was 5.45, the pIC50 (curve of first compound, second compound 10 µM) was greater than 7.50 and the viability, T/C [4] was 101%. It also gave a viability, T/C [5] of 90.5%, a viability, T/C [6] of 87.8% and a viability, T/C [7] of 104%. The viability, T/C [8] was 94.1%, the viability, T/C [9] was 27.1% and the viability, T/C [10] was 87.4%. The viability, T/C [11] was 76.7%, the viability, T/C [12] was 87.3% and the viability, T/C [13] was 76.1%. The viability, T/C [14] was 75%, the viability, T/C [15] was 24% and the viability, T/C [16] was 71.6%. The viability, T/C [17] was 76%, the viability, T/C [18] was 66.2% and the viability, T/C [19] was 64.8%. The viability, T/C [20] was 58.1%, the viability, T/C [21] was 18.2% and the viability, T/C (second compound 3.16 µM, first compound 0.0316 µM) was 57.2%. It also gave a viability, T/C (second compound 3.16 µM, first compound 0.1 µM) of 62.3%, a viability, T/C (second compound 3.16 µM, first compound 0.316 µM) of 58.4% and a viability, T/C (second compound 3.16 µM, first compound 1 µM) of 51.7%. For the same molecule, the viability, T/C (second compound 3.16 µM, first compound 3.16 µM) was 54.4%, the viability, T/C (second compound 3.16 µM, first compound 10 µM) was 17.7% and the viability, T/C (second compound 10 µM, first compound 0.0316 µM) was 47.7%. For the same molecule, the viability, T/C (second compound 10 µM, first compound 0.1 µM) was 44.6%, the viability, T/C (second compound 10 µM, first compound 0.316 µM) was 44.5% and the viability, T/C (second compound 10 µM, first compound 1 µM) was 48.1%. For the same molecule, the viability, T/C (second compound 10 µM, first compound 3.16 µM) was 42.7% and the viability, T/C (second compound 10 µM, first compound 10 µM) was 4.35%.

`Cn1ncnc1[C@H]1c2n[nH]c(=O)c3cc(F)cc(c23)N[C@@H]1c1ccc(F)cc1` was tested, and the viability, T/C (compound 0.000316 µM) was 120% and 97.9%, the viability, T/C (compound 0.001 µM) was 106% and 94.6% and the viability, T/C (compound 0.00316 µM) was 91.1% and 85.3%. The viability, T/C (compound 0.01 µM) was 76.8% and 86.8%, the viability, T/C (compound 0.0316 µM) was 73.8% and 78.4% and the viability, T/C (compound 0.1 µM) was 68% and 62.8%. It also gave a pIC50 (curve of compound) of less than 7.00.

`COc1c(OCCCN2CCOCC2)ccc2c3n(c(=NC(=O)c4cnc(N)nc4)nc12)CCN3` was tested, and the viability, T/C (compound 0.00316 µM) was 72.5% and 103%, the viability, T/C (compound 0.01 µM) was 52.7% and 57.6% and the viability, T/C (compound 0.0316 µM) was 41.7% and 46.2%. For the same molecule, the viability, T/C (compound 0.1 µM) was 32.3% and 38.2%, the viability, T/C (compound 0.316 µM) was 11% and 11.5% and the viability, T/C (compound 1 µM) was 2.47% and 3.86%. For the same molecule, the pIC50 (curve of compound) was 7.79 and 7.61.
